Test results taken from US8476434B2, “Protein kinase modulators and method of use” (Amgen Inc., priority 2004, dated 2013).

Molecular target: T1, LCK KD GST (225-509) (Homo sapiens, UniProt P06239)
T1 construct: LCK KD GST (225-509); GST
Assay: LCK Homogenous Time Resolved Fluorescent (HTRF) kinase assay
Assay type: biochemical
Protocol: The LCK HTRF assay begins with LCK in the presence of ATP phosphorylating the biotinylated peptide Gastrin. The reaction incubates for 90 min. To quench the assay detection reagents are added which both stop the reaction by diluting out the enzyme and chelating the metals due to the presence of EDTA. Once the detection reagents are added the assay incubates for 30 min to allow for equilibration of the detection reagents.
Buffer conditions are as follows: 50 mM HEPES pH 7.5, 50 mM NaCl, 20 mM MgCl, 5 mM MnCl, 2 mM DTT, 0.05% BSA.
The assay is quenched and stopped with 160 μL of detection reagent. Detection reagents are as follows: Buffer made of 50 mM Tris, pH 7.5, 100 mM NaCl, 3 mM EDTA, 0.05% BSA, 0.1% Tween20.
The assay plate is read in either a Discovery or a RubyStar.

T1 sequence (P06239 225-509): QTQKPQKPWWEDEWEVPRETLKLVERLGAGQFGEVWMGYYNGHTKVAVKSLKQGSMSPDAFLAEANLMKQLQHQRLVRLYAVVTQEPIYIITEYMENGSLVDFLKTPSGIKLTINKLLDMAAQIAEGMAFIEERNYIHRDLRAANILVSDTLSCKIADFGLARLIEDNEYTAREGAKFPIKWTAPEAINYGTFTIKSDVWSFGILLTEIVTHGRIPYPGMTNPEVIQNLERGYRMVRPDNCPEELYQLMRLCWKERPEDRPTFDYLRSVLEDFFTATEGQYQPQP

IC50 | Compound
< 1000 nM | C#Cc1cc(Oc2ncccc2-c2ccnc(NC)n2)cc(C(=O)Nc2cccc(C(F)(F)F)c2)c1 [3-ethynyl-5-((3-(2-(methylamino)-4-pyrimidinyl)-2-pyridinyl)oxy)-N-(3-(trifluoromethyl)phenyl)benzamide]
< 1000 nM | CNc1ncnc(-c2cccnc2Oc2cc(F)cc(C(=O)Nc3cccc(C(C)C)c3)c2)n1 [3-fluoro-5-((3-(4-(methylamino)-1,3,5-triazin-2-yl)-2-pyridinyl)oxy)-N-(3-(1-methylethyl)phenyl)benzamide]
< 1000 nM | CNc1nccc(-c2cc(Cl)cnc2Oc2c(C)cccc2C)n1 [4-(5-chloro-2-((2,6-dimethylphenyl)oxy)-3-pyridinyl)-N-methyl-2-pyrimidinamine]
< 1000 nM | COc1ccc(C(=O)Nc2cccc(C(F)(F)F)c2)cc1Nc1ncccc1-c1ccncn1 [4-(methyloxy)-3-((3-(4-pyrimidinyl)-2-pyridinyl)amino)-N-(3-(trifluoromethyl)phenyl)benzamide]
< 1000 nM | CNc1nccc(-c2cccnc2Oc2cc(C(=O)Nc3cc(C(F)(F)F)ccc3N3CCCCC3)ccc2Cl)n1 [4-chloro-3-((3-(2-(methylamino)-4-pyrimidinyl)-2-pyridinyl)oxy)-N-(2-(1-piperidinyl)-5-(trifluoromethyl)phenyl)benzamide]
< 1000 nM | CNc1nccc(-c2cccnc2Oc2cc(C(=O)Nc3cc(C(F)(F)F)ccc3N3CCCCC3)ccc2F)n1 [4-fluoro-3-((3-(2-(methylamino)-4-pyrimidinyl)-2-pyridinyl)oxy)-N-(2-(1-piperidinyl)-5-(trifluoromethyl)phenyl)benzamide]
< 1000 nM | CC(C)c1cccc(NC(=O)c2ccc(F)c(Nc3ncccc3-c3ncnc(NCCCn4ccnc4)n3)c2)c1 [4-fluoro-3-((3-(4-((3-(1H-imidazol-1-yl)propyl)amino)-1,3,5-triazin-2-yl)-2-pyridinyl)amino)-N-(3-(1-methylethyl)phenyl)benzamide]
< 1000 nM | COc1cc(-c2cccnc2Oc2cc(C(=O)Nc3cccc(C(F)(F)F)c3)ccc2C)ccn1 [4-methyl-3-((2′-(methyloxy)-3,4′-bipyridin-2-yl)oxy)-N-(3-(trifluoromethyl)phenyl)benzamide]
< 1000 nM | CNc1nccc(-c2cccnc2Oc2cc(C(=O)Nc3cc(OC[C@H]4CCCN4C)cc(C(F)(F)F)c3)ccc2C)n1 [4-methyl-3-((3-(2-(methylamino)-4-pyrimidinyl)-2-pyridinyl)oxy)-N-(3-((((2R)-1-methyl-2-pyrrolidinyl)methyl)oxy)-5-(trifluoromethyl)phenyl)benzamide]
< 1000 nM | CNc1nccc(-c2cccnc2Oc2cc(C(=O)Nc3cccc(OCc4ccccc4)c3)ccc2C)n1 [4-methyl-3-((3-(2-(methylamino)-4-pyrimidinyl)-2-pyridinyl)oxy)-N-(3-((phenylmethyl)oxy)phenyl)benzamide]
< 1000 nM | CNc1nccc(-c2cccnc2Oc2cc(C(=O)Nc3cccc(Cc4ccccc4)c3)ccc2C)n1 [4-methyl-3-((3-(2-(methylamino)-4-pyrimidinyl)-2-pyridinyl)oxy)-N-(3-(phenylmethyl)phenyl)benzamide]
< 1000 nM | CNc1nccc(-c2cccnc2Oc2cc(C(=O)Nc3ccc(C(C)C)cc3)ccc2C)n1 [4-methyl-3-((3-(2-(methylamino)-4-pyrimidinyl)-2-pyridinyl)oxy)-N-(4-(1-methylethyl)phenyl)benzamide]
< 1000 nM | CNc1nccc(-c2cccnc2Oc2cc(C(=O)Nc3cc(-c4ccccc4)ccc3OC)ccc2C)n1 [4-methyl-3-((3-(2-(methylamino)-4-pyrimidinyl)-2-pyridinyl)oxy)-N-(4-(methyloxy)-1,1′-biphenyl-3-yl)benzamide]
< 1000 nM | CNc1nccc(-c2cccnc2Oc2cc(C(=O)N[C@H](C)c3ccccc3)ccc2C)n1 [4-methyl-3-((3-(2-(methylamino)-4-pyrimidinyl)-2-pyridinyl)oxy)-N-((1R)-1-phenylethyl)benzamide]
< 1000 nM | CNc1nccc(-c2cccnc2Oc2cc(C(=O)NCc3cccc(C(F)(F)F)c3)ccc2C)n1 [4-methyl-3-((3-(2-(methylamino)-4-pyrimidinyl)-2-pyridinyl)oxy)-N-((3-(trifluoromethyl)phenyl)methyl)benzamide]
< 1000 nM | CNc1nccc(-c2cc(N3CCN(C)CC3)cnc2Oc2cc(C(=O)Nc3cccc(C(C)C)c3)ccc2C)n1 [4-methyl-3-((3-(2-(methylamino)-4-pyrimidinyl)-5-(4-methyl-1-piperazinyl)-2-pyridinyl)oxy)-N-(3-(1-methylethyl)phenyl)benzamide]
< 1000 nM | CNc1nccc(-c2cc(N3CCOCC3)cnc2Oc2cc(C(=O)Nc3cccc(C(C)C)c3)ccc2C)n1 [4-methyl-3-((3-(2-(methylamino)-4-pyrimidinyl)-5-(4-morpholinyl)-2-pyridinyl)oxy)-N-(3-(1-methylethyl)phenyl)benzamide]

IC50 | Compound
< 1000 nM | CNc1ncnc(-c2cccnc2Oc2cc(C(=O)Nc3cc(C(F)(F)F)ccc3N3CCCCC3)ccc2C)n1 [4-methyl-3-((3-(4-(methylamino)-1,3,5-triazin-2-yl)-2-pyridinyl)oxy)-N-(2-(1-piperidinyl)-5-(trifluoromethyl)phenyl)benzamide]
< 1000 nM | CNc1ncnc(-c2cccnc2Oc2cc(C(=O)Nc3cccc(C(F)(F)F)c3C)ccc2C)n1 [4-methyl-3-((3-(4-(methylamino)-1,3,5-triazin-2-yl)-2-pyridinyl)oxy)-N-(2-methyl-3-(trifluoromethyl)phenyl)benzamide]
< 1000 nM | CNc1ncnc(-c2cccnc2Oc2cc(C(=O)Nc3cccc(C(C)C)c3)ccc2C)n1 [4-methyl-3-((3-(4-(methylamino)-1,3,5-triazin-2-yl)-2-pyridinyl)oxy)-N-(3-(1-methylethyl)phenyl)benzamide]
< 1000 nM | CNc1ncnc(-c2cccnc2Oc2cc(C(=O)Nc3cccc(OCc4ccccc4)c3)ccc2C)n1 [4-methyl-3-((3-(4-(methylamino)-1,3,5-triazin-2-yl)-2-pyridinyl)oxy)-N-(3-((phenylmethyl)oxy)phenyl)benzamide]
< 1000 nM | CNc1ncnc(-c2cccnc2Oc2cc(C(=O)Nc3cccc(C(F)(F)F)c3)ccc2C)n1 [4-methyl-3-((3-(4-(methylamino)-1,3,5-triazin-2-yl)-2-pyridinyl)oxy)-N-(3-(trifluoromethyl)phenyl)benzamide]
< 1000 nM | Cc1ccc(C(=O)Nc2ccc(C(F)(F)F)cc2)cc1Nc1ncccc1-c1ccncn1 [4-methyl-3-((3-(4-pyrimidinyl)-2-pyridinyl)amino)-N-(4-(trifluoromethyl)phenyl)benzamide]
< 1000 nM | Cc1ccc(C(=O)Nc2cccc(C(F)(F)F)c2)cc1Oc1ncccc1-c1ccncn1 [4-methyl-3-((3-(4-pyrimidinyl)-2-pyridinyl)oxy)-N-(3-(trifluoromethyl)phenyl)benzamide]
< 1000 nM | CNc1cc(-c2cccnc2Oc2cc(C(=O)Nc3cccc(C(F)(F)F)c3)ccc2C)ncn1 [4-methyl-3-((3-(6-(methylamino)-4-pyrimidinyl)-2-pyridinyl)oxy)-N-(3-(trifluoromethyl)phenyl)benzamide]
< 1000 nM | COc1ccc(C(F)(F)F)cc1NC(=O)c1ccc(C)c(Oc2ncccc2-c2ccncn2)c1 [4-methyl-N-(2-(methyloxy)-5-(trifluoromethyl)phenyl)-3-((3-(4-pyrimidinyl)-2-pyridinyl)oxy)benzamide]
< 1000 nM | Cc1ccc(C(=O)Nc2cccc(C(C)C)c2)cc1Oc1ncccc1-c1ncnc(NCCCN2CCOCC2)n1 [4-methyl-N-(3-(1-methylethyl)phenyl)-3-((3-(4-((3-(4-morpholinyl)propyl)amino)-1,3,5-triazin-2-yl)-2-pyridinyl)oxy)benzamide]
< 1000 nM | CNc1nccc(-c2cccnc2Oc2cccc(NC(=O)c3cc(C(C)(C)C)ccc3OC)c2)n1 [5-(1,1-dimethylethyl)-N-(3-((3-(2-(methylamino)-4-pyrimidinyl)-2-pyridinyl)oxy)phenyl)-2-(methyloxy)benzamide]
< 1000 nM | CNc1nccc(-c2cccnc2Oc2cc(NC(=O)c3cc(C(C)(C)C)ccc3OC)ccc2C)n1 [5-(1,1-dimethylethyl)-N-(4-methyl-3-((3-(2-(methylamino)-4-pyrimidinyl)-2-pyridinyl)oxy)phenyl)-2-(methyloxy)benzamide]
< 1000 nM | CNc1nccc(-c2cccnc2Oc2ccc(NC(=O)Nc3cc(Cl)ccc3Cl)cc2C)n1 [N-(2,5-dichlorophenyl)-N′-(3-methyl-4-((3-(2-(methylamino)-4-pyrimidinyl)-2-pyridinyl)oxy)phenyl)urea]
< 1000 nM | CNc1nccc(-c2cccnc2Oc2ccc(NC(=O)Nc3cc(C)ccc3C)cc2C)n1 [N-(2,5-dimethylphenyl)-N′-(3-methyl-4-((3-(2-(methylamino)-4-pyrimidinyl)-2-pyridinyl)oxy)phenyl)urea]
< 1000 nM | CNc1cc(-c2cccnc2Oc2ccc(F)c(C(=O)Nc3cc(C(C)(C)C)ccc3N(C)CCCN(C)C)c2)ccn1 [N-(2-((3-(dimethylamino)propyl)(methyl)amino)-5-(1,1-dimethylethyl)phenyl)-2-fluoro-5-((2′-(methylamino)-3,4′-bipyridin-2-yl)oxy)benzamide]
< 1000 nM | CNc1ncnc(-c2cccnc2Oc2ccc(F)c(C(=O)Nc3cc(C(C)C)ccc3N(C)CCCN(C)C)c2)n1 [N-(2-((3-(dimethylamino)propyl)(methyl)amino)-5-(1-methylethyl)phenyl)-2-fluoro-5-((3-(4-(methylamino)-1,3,5-triazin-2-yl)-2-pyridinyl)oxy)benzamide]
